Experimental data: US7071218B2, “N-substituted heterocycles for the treatment of hypercholesteremia, dyslipidemia and other metabolic disorders; cancer, and other diseases” (Incyte San Diego Incorporated, priority 2001, dated 2006)

What was measured:
[1] = system: MDA-MB-468 breast cancer cells; assay: MTT anti-cancer assay, MDA-MB-468 breast cancer cells; type: cell-based, human; conditions: at 10 μM, 6 days
From the text: (§1) The anti-cancer activity of the compounds of the invention herein have been tested in in vitro assays using a microculture assay with 3-(4,5-dimethylthiazol-2-yl)-2,5-diphenyltetrazolium bromide (“MTT”) a test well known to those skilled in the art. This assay has an advantage over in vivo assay in that results are obtained within a week as opposed to several months. The assay can be carried out in 96-well microtiter plates. The MTT assay is based on the production of a dark blue formazan product by dehydrogenase in the mitochondria of live tumor cells after exposure to drug for 6 days [M. C. […] Thus, only live cells are stained and can be measured at 595 nm. […]
(§2) Treatment: Before commencing drug treatment, cells were replenished with media containing 0.5% FCS. […] As an end point, the amount of surviving cells (Live cells) was measured using a standard […] assay (MTT based), and calculated as percentage of cells treated with vehicle (DMSO) alone (% control).
(§3) MTT assay: The assay is based on the cleavage of the yellow tetrazolium salt MTT to purple formazan crystals by dehydrogenase activity in active mitochondria. […] The formazan crystals formed are solubilized and the resulting colored solution is quantified using a scanning multiwell spectrophotometer. […]

[2] = Oral treatment of hypercholesterolemia in Sprague Dawley rats on a high cholesterol atherogenic diet (serum cholesterols); type: in vivo; conditions: 20 mg/kg once daily by oral gavage for five days
Procedure: Six week-old male Sprague Dawley rats (HSD, Harlan) were housed in a fixed 12–12-hr artificial light-dark cycle, and maintained on a high cholesterol, atherogenic diet ad libitum (# C13002, Research Diets, New Jersey).
Animals were maintained on this diet throughout the course of the study.
Following six days of maintenance on the high cholesterol diet, the animals were bled from the tail vein (100–200 μL of whole blood) and serum levels of total cholesterol were measured in duplicate (Infinity Cholesterol Kit; Sigma, St. Louis, Mo.). Based on these initial measures, animals were sorted into groups with approximately the same average serum cholesterol levels. Once sorted, the animals were housed three per cage and maintained on the high cholesterol diet ad libitum.
Treatment groups (n=6/group): • 1) High cholesterol fed control (sesame oil) • 2) Compound 7 (20 mg/kg; once daily)
Compound 7 was mixed in sesame oil, and administered to animals in a volume of 3 mL/kg/dose. Compound 7 was administered by oral gavage daily for five consecutive days.
To monitor the effect of Compound 7, animals were bled from the tail vein five days after commencement of oral treatment. Serum cholesterols were measured in duplicate. The blood is kept at room temperature to allow coagulation, after which the serum is separated and assayed for total cholesterol (see FIG. 1), high density lipoprotein cholesterol (see FIG. 2) and low density lipoprotein cholesterol levels (see FIG. 3). […] Similarly, Compound 7 reduced LDL cholesterol levels compared to controls (ANOVA, Fisher's Least significant difference test, p≦0.01). Finally, Compound 7 increased HDL cholesterol levels compared to controls (ANOVA, Fisher's Least significant difference test, p<0.01).

[3] = system: human cancer cell lines (A549, MDA-MB-468, PC-3, Bx-PC3); assay: MTT anti-cancer assay, the other cancer cell lines of the panel; type: cell-based; conditions: at 10 μM, 6 days, cell lines other than MDA-MB-468 (A549, PC-3, Bx-PC3)
From the text: as §1, §2, §3

With `CN(C)c1cc2c(cc1-c1ccc3cc(/C=C4\SC(=S)N(CC(=O)O)C4=O)ccc3c1)C(C)(C)CCC2(C)C` [Compound 7, {5-[6-(3-Dimethylamino-5,5,8,8-tetramethyl-5,6,7,8-tetrahydro-naphthalen-2-yl)-naphthalen-2-ylmethylene]-4-oxo-2-thioxo-thiazolidin-3-yl}-acetic acid] the cells killed [1] was roughly 80%, the “HDL cholesterol levels compared to controls” value ([2]; p<0.01) was “increased” and the “LDL cholesterol levels compared to controls” value ([2]; p≦0.01) was “reduced”. The “total serum cholesterol compared to control animals” value ([2]; p≦0.01) was “significantly reduced” and the cells killed [3] was no more than 50%.
